In PMC4912623, “A CD36 ectodomain mediates insect pheromone detection via a putative tunnelling mechanism” (Nature Communications, 2016):

Target: T1, OR67d/ORCO (Drosophila melanogaster, UniProt Q9VT92)
T1 construct: endogenous receptor in OR67d olfactory neurons in vivo (wild type, or snmp1 null rescued with transgenic SNMP1); with Odorant receptor coreceptor; Sensory neuron membrane protein 1
Experiment: single sensillum electrophysiology in flies
Format: cell-based
Conditions: v/v dilutions in paraffin oil, airstream

T1 sequence (Q9VT92 whole entry): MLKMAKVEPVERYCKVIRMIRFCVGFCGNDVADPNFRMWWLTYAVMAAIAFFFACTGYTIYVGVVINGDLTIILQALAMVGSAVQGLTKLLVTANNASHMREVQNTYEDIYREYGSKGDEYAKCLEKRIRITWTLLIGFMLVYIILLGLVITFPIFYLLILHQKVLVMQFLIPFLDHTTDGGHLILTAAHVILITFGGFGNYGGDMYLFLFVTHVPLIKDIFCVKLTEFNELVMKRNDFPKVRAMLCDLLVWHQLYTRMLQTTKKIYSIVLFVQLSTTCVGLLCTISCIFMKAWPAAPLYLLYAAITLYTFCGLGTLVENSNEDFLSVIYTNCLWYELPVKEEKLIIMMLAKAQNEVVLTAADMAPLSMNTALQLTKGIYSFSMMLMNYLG
T1 sequence (Q9VNB5 whole entry partner): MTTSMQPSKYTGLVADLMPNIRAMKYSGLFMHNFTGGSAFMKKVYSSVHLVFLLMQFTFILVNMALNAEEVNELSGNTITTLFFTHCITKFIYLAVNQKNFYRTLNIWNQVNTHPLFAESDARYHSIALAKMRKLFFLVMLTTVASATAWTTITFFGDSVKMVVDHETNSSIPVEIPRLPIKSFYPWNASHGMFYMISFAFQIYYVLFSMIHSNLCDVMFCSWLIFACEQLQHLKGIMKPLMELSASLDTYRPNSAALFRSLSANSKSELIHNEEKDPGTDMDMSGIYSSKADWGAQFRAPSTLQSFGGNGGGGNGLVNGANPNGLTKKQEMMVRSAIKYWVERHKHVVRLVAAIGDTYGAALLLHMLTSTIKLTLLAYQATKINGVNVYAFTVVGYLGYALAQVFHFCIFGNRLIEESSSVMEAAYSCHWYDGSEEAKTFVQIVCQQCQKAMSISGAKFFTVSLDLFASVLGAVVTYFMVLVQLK
T1 sequence (Q9VDD3 whole entry partner): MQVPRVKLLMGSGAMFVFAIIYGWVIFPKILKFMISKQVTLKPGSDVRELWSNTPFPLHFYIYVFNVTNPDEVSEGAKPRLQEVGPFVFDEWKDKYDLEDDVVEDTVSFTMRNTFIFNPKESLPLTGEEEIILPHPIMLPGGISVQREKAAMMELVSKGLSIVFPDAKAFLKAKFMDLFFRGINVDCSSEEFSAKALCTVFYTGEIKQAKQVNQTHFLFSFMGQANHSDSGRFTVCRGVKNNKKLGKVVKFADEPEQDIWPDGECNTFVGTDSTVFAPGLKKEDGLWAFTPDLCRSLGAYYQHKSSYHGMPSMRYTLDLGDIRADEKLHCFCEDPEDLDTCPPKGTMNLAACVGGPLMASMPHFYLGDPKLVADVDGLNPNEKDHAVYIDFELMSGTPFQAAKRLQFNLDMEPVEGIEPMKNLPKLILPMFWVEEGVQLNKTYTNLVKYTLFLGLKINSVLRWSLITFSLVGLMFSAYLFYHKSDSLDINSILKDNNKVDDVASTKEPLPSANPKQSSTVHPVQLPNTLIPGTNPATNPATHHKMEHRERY

Q: How did the spikes/s turn out when CCCCCC/C=C\CCCCCCCCCCOC(C)=O [cVA, (Z)-11-octadecenyl acetate] was run?
A: The spikes/s was “Concentration–response curves of OR67d neurons to cVA in the indicated rescue genotypes”.
